Literature values in US20200306292A1, “METHOD FOR TREATING ACUTE HYPOVOLEMIA” (Wonder Spray, LLC, priority 2019, published 2020).

Tests used:
[1] = test system: f2 RNA; conditions: naked f2 RNA compared with RNA in intact phage
[2] = inhalation
[3] = test system: E. coli; conditions: 50 mM (2.6 ppm) HOCl, within 5 minutes
[4] = test system: E. coli; conditions: (2.6 ppm) HOCl, within 5 minutes

## OCl [HOCl, hypochlorous acid]
[1]
  inactivation of naked f2 RNA: inactivated naked f2 RNA at the same rate as RNA in intact phage
[2]
  adverse effects on inhaling the aerosolized form: no adverse effects
[3]
  inhibiting the DNA synthesis: ninety-six
[4]
  growth of E. coli: completely inhibited
